Laboratory results from PubChem BioAssay AID1259407 (Chemical Carcinogenesis Research Information System (CCRIS), 2018).
Active and inactive are the calls of the source. No rule for the calls is given here.

System: CCRIS mutagenicity, Ames/micronucleus/aberration tests
Assay: CCRIS mutagenicity studies
[1] = Test System: AMES SALMONELLA TYPHIMURIUM, Strain/Indicator: TA98, Metabolic Activation: NONE, Method: PREINCUBATION
[2] = Test System: AMES SALMONELLA TYPHIMURIUM, Strain/Indicator: TA100, Metabolic Activation: NONE, Method: PREINCUBATION
[3] = Test System: AMES SALMONELLA TYPHIMURIUM, Strain/Indicator: TA1535, Metabolic Activation: NONE, Method: PREINCUBATION
[4] = Test System: AMES SALMONELLA TYPHIMURIUM, Strain/Indicator: TA1537, Metabolic Activation: NONE, Method: PREINCUBATION
[5] = Test System: AMES SALMONELLA TYPHIMURIUM, Strain/Indicator: TA98, Metabolic Activation: NONE, Method: STANDARD PLATE
[6] = Test System: AMES SALMONELLA TYPHIMURIUM, Strain/Indicator: TA100, Metabolic Activation: NONE, Method: STANDARD PLATE

Measured: mutagenic call

OCCO
inactive: Test System: AMES SALMONELLA TYPHIMURIUM, Strain/Indicator: TA98, Metabolic Activation: HAMSTER, LIVER, S-9, AROCLOR 1254 (10%), Method: PREINCUBATION inactive; negative | [1] inactive; negative | Test System: AMES SALMONELLA TYPHIMURIUM, Strain/Indicator: TA98, Metabolic Activation: RAT LIVER S-9, PHENOBARBITAL AND BETA-NAPHTHOFLAVONE, Method: PREINCUBATION inactive; negative | Test System: AMES SALMONELLA TYPHIMURIUM, Strain/Indicator: TA98, Metabolic Activation: RAT, LIVER, S-9, AROCLOR 1254 (10%), Method: PREINCUBATION inactive; negative | Test System: AMES SALMONELLA TYPHIMURIUM, Strain/Indicator: TA100, Metabolic Activation: HAMSTER, LIVER, S-9, AROCLOR 1254 (10%), Method: PREINCUBATION inactive; negative | [2] inactive; negative | Test System: AMES SALMONELLA TYPHIMURIUM, Strain/Indicator: TA100, Metabolic Activation: RAT LIVER S-9, PHENOBARBITAL AND BETA-NAPHTHOFLAVONE, Method: PREINCUBATION inactive; negative | Test System: AMES SALMONELLA TYPHIMURIUM, Strain/Indicator: TA100, Metabolic Activation: RAT, LIVER, S-9, AROCLOR 1254 (10%), Method: PREINCUBATION inactive; negative | Test System: AMES SALMONELLA TYPHIMURIUM, Strain/Indicator: TA1535, Metabolic Activation: HAMSTER, LIVER, S-9, AROCLOR 1254 (10%), Method: PREINCUBATION inactive; negative | [3] inactive; negative | Test System: AMES SALMONELLA TYPHIMURIUM, Strain/Indicator: TA1535, Metabolic Activation: RAT LIVER S-9, PHENOBARBITAL AND BETA-NAPHTHOFLAVONE, Method: PREINCUBATION inactive; negative | Test System: AMES SALMONELLA TYPHIMURIUM, Strain/Indicator: TA1535, Metabolic Activation: RAT, LIVER, S-9, AROCLOR 1254 (10%), Method: PREINCUBATION inactive; negative | Test System: AMES SALMONELLA TYPHIMURIUM, Strain/Indicator: TA1537, Metabolic Activation: HAMSTER, LIVER, S-9, AROCLOR 1254 (10%), Method: PREINCUBATION inactive; negative | [4] inactive; negative | Test System: AMES SALMONELLA TYPHIMURIUM, Strain/Indicator: TA1537, Metabolic Activation: RAT LIVER S-9, PHENOBARBITAL AND BETA-NAPHTHOFLAVONE, Method: PREINCUBATION inactive; negative | Test System: AMES SALMONELLA TYPHIMURIUM, Strain/Indicator: TA1537, Metabolic Activation: RAT, LIVER, S-9, AROCLOR 1254 (10%), Method: PREINCUBATION inactive; negative | Test System: E.COLI, Strain/Indicator: WP2UVRA, Metabolic Activation: NONE, Method: PREINCUBATION inactive; negative | Test System: E.COLI, Strain/Indicator: WP2UVRA, Metabolic Activation: RAT LIVER S-9, PHENOBARBITAL AND BETA-NAPHTHOFLAVONE, Method: PREINCUBATION inactive; negative | Test System: MOUSE LYMPHOMA, Strain/Indicator: L5178Y (TK+/TK-), Metabolic Activation: NONE, Method: SUSPENSION/PLATE inactive; negative | Test System: MOUSE LYMPHOMA, Strain/Indicator: L5178Y (TK+/TK-), Metabolic Activation: RAT, LIVER, S-9, AROCLOR 1254, Method: SUSPENSION/PLATE inactive; negative

CCOC(=O)CNC(=O)CCCCSc1ncnc2nc[nH]c12
inactive: Test System: AMES SALMONELLA TYPHIMURIUM, Strain/Indicator: TA97, Metabolic Activation: NONE, Method: STANDARD PLATE inactive; negative | Test System: AMES SALMONELLA TYPHIMURIUM, Strain/Indicator: TA97, Metabolic Activation: RAT, LIVER, S-9, PHENOBARBITAL AND ALPHA-NAPHTHOFLAVONE, Method: STANDARD PLATE inactive; negative | [5] inactive; negative | Test System: AMES SALMONELLA TYPHIMURIUM, Strain/Indicator: TA98, Metabolic Activation: RAT, LIVER, S-9, PHENOBARBITAL AND ALPHA-NAPHTHOFLAVONE, Method: STANDARD PLATE inactive; negative | [6] inactive; negative | Test System: AMES SALMONELLA TYPHIMURIUM, Strain/Indicator: TA100, Metabolic Activation: RAT, LIVER, S-9, PHENOBARBITAL AND ALPHA-NAPHTHOFLAVONE, Method: STANDARD PLATE inactive; negative | Test System: AMES SALMONELLA TYPHIMURIUM, Strain/Indicator: TA1535, Metabolic Activation: NONE, Method: STANDARD PLATE inactive; negative | Test System: AMES SALMONELLA TYPHIMURIUM, Strain/Indicator: TA1535, Metabolic Activation: RAT, LIVER, S-9, PHENOBARBITAL AND ALPHA-NAPHTHOFLAVONE, Method: STANDARD PLATE inactive; negative

c1ccc2cc3c4c(ccc3cc2c1)CCC1OC41 (stereo not given)
active: Test System: CHINESE HAMSTER V-79, Strain/Indicator: V-79/8-AZAGUANINE, Metabolic Activation: NONE, Method: STANDARD PLATE active; positive

NC(=O)c1cc(N2CC2)c([N+](=O)[O-])cc1[N+](=O)[O-]
inactive: [5] inactive; negative
active: [6] active; positive | Test System: E. COLI, Strain/Indicator: NFR-343, Metabolic Activation: NONE, Method: AGAR OVERLAY active; positive | Test System: E. COLI, Strain/Indicator: NFR-343, Metabolic Activation: NONE, Method: STANDARD PLATE active; positive | Test System: E. COLI, Strain/Indicator: NFR-343, Metabolic Activation: RAT, LIVER, S-9, AROCLOR 1254, Method: STANDARD PLATE active; positive | Test System: E. COLI, Strain/Indicator: WP2, Metabolic Activation: NONE, Method: STANDARD PLATE active; positive | Test System: E. COLI, Strain/Indicator: WP2 UVRA (PKM101), Metabolic Activation: NONE, Method: STANDARD PLATE active; positive | Test System: E. COLI, Strain/Indicator: WP2 UVRA, Metabolic Activation: NONE, Method: AGAR OVERLAY active; positive | Test System: E. COLI, Strain/Indicator: WP2 UVRA, Metabolic Activation: NONE, Method: STANDARD PLATE active; positive | Test System: E. COLI, Strain/Indicator: WP2 UVRA, Metabolic Activation: RAT, LIVER, S-9, AROCLOR 1254, Method: STANDARD PLATE active; positive

COc1nncc2cccnc12
inactive: [1] inactive; negative | Test System: AMES SALMONELLA TYPHIMURIUM, Strain/Indicator: TA98, Metabolic Activation: RAT, LIVER, S-9, PCB, Method: PREINCUBATION inactive; negative | [2] inactive; negative | Test System: AMES SALMONELLA TYPHIMURIUM, Strain/Indicator: TA100, Metabolic Activation: RAT, LIVER, S-9, PCB, Method: PREINCUBATION inactive; negative

CC(=O)C(C)=O
active: [6] active; positive | Test System: AMES SALMONELLA TYPHIMURIUM, Strain/Indicator: TA100, Metabolic Activation: RAT, LIVER, S-9, PHENOBARBITAL, Method: STANDARD PLATE active; positive | Test System: AMES SALMONELLA TYPHIMURIUM, Strain/Indicator: TA102, Metabolic Activation: NONE, Method: PREINCUBATION active; positive | Test System: AMES SALMONELLA TYPHIMURIUM, Strain/Indicator: TA102, Metabolic Activation: RAT, LIVER, S-9, AROCLOR 1254, Method: PREINCUBATION active; positive | Test System: AMES SALMONELLA TYPHIMURIUM, Strain/Indicator: TA104, Metabolic Activation: NONE, Method: PREINCUBATION active; positive
inactive: [1] inactive; negative | Test System: AMES SALMONELLA TYPHIMURIUM, Strain/Indicator: TA98, Metabolic Activation: RAT, LIVER, S-9, AROCLOR 1254, Method: PREINCUBATION inactive; negative | [2] inactive; negative | Test System: AMES SALMONELLA TYPHIMURIUM, Strain/Indicator: TA100, Metabolic Activation: RAT, LIVER, S-9, AROCLOR 1254, Method: PREINCUBATION inactive; negative | [3] inactive; negative | [4] inactive; negative | Test System: AMES SALMONELLA TYPHIMURIUM, Strain/Indicator: TA1538, Metabolic Activation: NONE, Method: PREINCUBATION inactive; negative | Test System: E. COLI, Strain/Indicator: WP2 UVRA, Metabolic Activation: NONE, Method: PREINCUBATION inactive; negative

Cc1cc2ccccc2c2cc([N+](=O)[O-])c3ccccc3c12
active: [1] active; positive | Test System: AMES SALMONELLA TYPHIMURIUM, Strain/Indicator: TA98, Metabolic Activation: RAT, LIVER, S-9, Method: PREINCUBATION active; positive | [2] active; positive | Test System: AMES SALMONELLA TYPHIMURIUM, Strain/Indicator: TA100, Metabolic Activation: RAT, LIVER, S-9, Method: PREINCUBATION active; positive
